Experimental data reported in patent US11504385B2, “Proteolysis targeting chimeric molecule, preparation method, and application” (CHINA PHARMACEUTICAL UNIVERSITY, priority 2019, dated 2022).
pIC50: −log10 of the molar value.

Assays:
[1] = Photo-isomerization by UV-Vis absorption spectrum; assay type: physicochemical
Protocol: Then, we explored the photodynamic characteristics of the compound 4C through UV-Vis absorption spectrum. […] In addition, since the compound 4C is a T-type optical switch, the cis configuration underwent self-heating relaxation under dark conditions to transform into the trans configuration, and T½ was about 10 hours at 25° C.

A549 = assay: Cell viability test (CellTiter-Glo), A549; assay type: cell-based; details: A549, non-BCR-ABL dependent tumor cell line
Protocol: The operation method of the K562 cell viability test is as follows:
50 μL of K562, MCF-7, HCT116 and A549 cell suspensions were added to a 96-well plate and incubated for 12 hours. 10 μL of compound was added to the well and incubated for 48 hours. Operation was performed according to a CellTiter-Glo® luminescent cell viability assay kit (Promega). Nonlinear regression analysis data in GraphPad Prism 6 was used.

K562 cells = assay: Anti-K562 cell proliferation activity test (CCK-8); assay type: cell-based; details: Homo sapiens, 48 hours, read-out: median inhibitory concentration (IC50)
Protocol: The operation method of the anti-K562 cell proliferation activity test is as follows:
100 μL of K562 cell suspension and 10 μL of test compounds of different concentrations were prepared in a 96-well plate. The culture plate was placed in an incubator for incubation for 48 hours (37° C., 5% CO2). 10 μL of CCK-8 solution was added to each well. The culture plate was placed in an incubator for incubation for 1-4 hours. The absorbency was measured at 450 nm with a microplate reader. […] (%)=[A (with drug)−A (blank)]/[A (with 0 drug)−A (blank)]×100, wherein:
A (with drug): the absorbency of the wells containing cells, CCK-8 solution and drug solution
A (blank): the absorbency of wells containing medium and CCK-8 solution but no cells
A (with 0 drug): the absorbency of the wells containing cells and CCK-8 solution but no drug solution

HEK293T = assay: Cell viability test, HEK293T; assay type: cell-based; details: non-BCR-ABL dependent cell line
ABL [2] = molecular target: T1, ABL (Homo sapiens, UniProt P00519); assay: Simulated light control, ABL level in K562 cells (immunoblotting); assay type: cell-based; details: 100 nM for 24 hours, then fresh medium
T1 construct: degradation effect of the compound 4C on c-ABL and BCR-ABL proteins in K562 cells; endogenous in cells; host or cells: K562
T1 sequence (P00519 whole entry): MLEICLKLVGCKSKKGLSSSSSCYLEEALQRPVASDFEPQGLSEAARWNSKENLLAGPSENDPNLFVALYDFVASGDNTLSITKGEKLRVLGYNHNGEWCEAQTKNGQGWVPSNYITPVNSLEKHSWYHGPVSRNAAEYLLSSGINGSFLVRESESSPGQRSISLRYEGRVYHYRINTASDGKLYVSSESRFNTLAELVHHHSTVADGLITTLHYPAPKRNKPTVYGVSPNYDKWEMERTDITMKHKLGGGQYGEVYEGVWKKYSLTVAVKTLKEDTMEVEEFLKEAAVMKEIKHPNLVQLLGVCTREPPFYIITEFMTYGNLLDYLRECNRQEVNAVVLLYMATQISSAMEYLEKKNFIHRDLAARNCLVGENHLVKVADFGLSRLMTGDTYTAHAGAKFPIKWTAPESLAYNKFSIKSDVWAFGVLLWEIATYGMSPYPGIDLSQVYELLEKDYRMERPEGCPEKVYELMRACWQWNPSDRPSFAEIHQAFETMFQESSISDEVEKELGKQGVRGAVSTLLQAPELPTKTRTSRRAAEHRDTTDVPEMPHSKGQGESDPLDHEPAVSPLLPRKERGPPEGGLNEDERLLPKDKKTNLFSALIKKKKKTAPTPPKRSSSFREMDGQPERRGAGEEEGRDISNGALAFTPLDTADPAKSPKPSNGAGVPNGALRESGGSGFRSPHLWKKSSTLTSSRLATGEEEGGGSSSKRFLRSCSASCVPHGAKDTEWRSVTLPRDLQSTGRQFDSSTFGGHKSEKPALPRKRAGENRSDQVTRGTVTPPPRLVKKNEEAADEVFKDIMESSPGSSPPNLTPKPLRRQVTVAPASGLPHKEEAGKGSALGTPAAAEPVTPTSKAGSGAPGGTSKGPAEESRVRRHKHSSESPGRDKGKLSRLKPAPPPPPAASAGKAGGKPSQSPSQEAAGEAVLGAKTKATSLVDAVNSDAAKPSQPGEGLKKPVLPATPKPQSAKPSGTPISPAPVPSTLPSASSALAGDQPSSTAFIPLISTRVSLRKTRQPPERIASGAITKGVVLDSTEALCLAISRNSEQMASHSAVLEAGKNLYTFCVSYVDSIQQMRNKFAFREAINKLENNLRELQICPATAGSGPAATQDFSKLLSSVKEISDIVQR
Protocol: (§1) In order to simulate a light control process, the researchers treated K562 cells with the compound 4C-trans for 24 hours. Then the cells were transferred to fresh media and divided into 2 groups: one group was placed in a dark room (VIS group), and the other group was irradiated with UV after 0, 4, 8, 12, 16, and 24 hours of incubation to simulate the photo-isomerization process (UV group).
(§2) The specific operation method for simulating light control is as follows:
(§3) The compound 4C-trans at a final concentration of 100 nM was added to K562 cells, and the cells were incubated at 37° C. for 24 hours. The medium was washed off, and the cells were washed 2 times with 1*PBS. Then the cells were transferred to fresh 1640 medium (10% FBS, 1*glutamine) for culture, and divided into two groups: one group was placed in a dark room, and the other group was irradiated with UV-C light for 30 min every 4 hours. The cells were collected after transfer and incubation for 0, 4, 8, 16, and 24 hours respectively, and post-treatment of the cells was the same as that of immunoblotting.

BCR-ABL fusion protein = molecular target: T2, BCR-ABL fusion protein (Homo sapiens, UniProt P00519+P11274+Q96SW2, E27K); assay: Simulated light control, BCR-ABL level in K562 cells (immunoblotting); assay type: cell-based; details: 100 nM for 24 hours, then fresh medium
T2 construct: By using BCR-ABL and CRBN positive K562 cell lines; endogenous in cells; host or cells: K562
Protocol: as §1, §2, §3

ABL [3] = molecular target: T1, ABL; assay: Immunoblotting, degradation of ABL protein in K562 cells; assay type: cell-based
Protocol: Initially, researchers synthesized a 2C compound (FIG. 2A), which is a small molecule with the shortest joining chain (n=1). By using BCR-ABL and CRBN positive K562 cell lines, degradation of ABL and BCR-ABL proteins in the cells under the action of the compound was tested by immunoblotting. […] Then, the researchers tried to extend the joining chain (increasing the value of n).
In order to test the degradation effect of the compound 4C on c-ABL and BCR-ABL proteins in K562 cells, the researchers performed an immunoblotting experiment. […] In order to exclude the possibility that the compound 4C affected the ABL gene to generate false positive expression, the researchers used RT-qPCR in K562 cells to study the expression of the ABL gene.
The operation method of the immunoblotting experiment is as follows:
K562 cells after administration were incubated for 24 hours.
The medium was aspirated from the culture; the cells were washed with 1*PBS; and the cells were aspirated.
A weak RIPA lysate (100 μL) was added to lyse the cells for 40 min.
The sample was centrifuged at 13000 rpm, 4° C. for 15 min; 80 μl of supernatant was taken and added to 20 μl of loading buffer; the reaction solution was heated at 100° C. for 8 minutes; and the sample was placed on ice and cooled.
[…] of sample was loaded on 10% SDS-PAGE gel. The sample was transferred to a PVDF membrane by a wet process.
A membrane was placed in 25 ml of blocking buffer and blocked at room temperature for 1 hour.
The membrane and the primary antibody (according to the appropriate dilution and diluent recommended in the product description) were placed in 10 ml of primary antibody dilution buffer, and incubated overnight at 4° C. and gently shaken from time to time.
Anti-rabbit IgG, HRP-linked Antibody (#7074, in a ratio of 1:2000) and anti-biotin, HRP-linked Antibody (#7075, in a ratio of 1:1000-1:3000) are diluted with 10 ml of blocking buffer to detect biotinylated protein standards. The membrane was incubated with the diluent, and gently shaken and incubated at room temperature for 1 hour.
A developer solution and the membrane were incubated together for 1 minute, the excess solution was discarded (the membrane remained moist) and the membrane was exposed.
Next, we tested the difference in the activity of different configurations of compound 4C in degradation of ABL and BCR-ABL proteins. […] The operation method of the immunoblotting experiment is the same as above.

[4] = UV-C 30 min every 4 hours (UV group)
[5] = dark room (VIS group), 0-24 hours

With `Cc1nc(Nc2ncc(C(=O)Nc3c(C)cccc3Cl)s2)cc(N2CCN(CCCCOc3ccc(/N=N/c4ccc(C(=O)Nc5cccc6c5CN(C5CCC(=O)NC5=O)C6=O)cc4)cc3)CC2)n1` (stereo not shown) [Compound 4C, (E)-N-(2-chloro-6-methylphenyl)-2-((6-(4-(4-(4-((4-((2-(2,6-dioxopiperidin-3-yl)-1-oxoisoindolin-4-yl)carbamoyl)phenyl)diazenyl)phenoxy)butyl)piperazin-1-yl)-2-methylpyrimidin-4-yl)amino)thiazole-5-carboxamide] the “transformation from trans to cis configuration (absorbency-time curve at 361 nm)” value ([1]; UV irradiation for 1 hour) was “almost completely transformed to the cis configuration”, the “reversibility of the photosensitive switch (stability)” value ([1]; irradiated with ultraviolet light and white light in turn for 5 times) was “still relatively stable” and the “effect on cell viability” value (A549) was “hardly affects”. The pIC50 (K562 cells) was 7.17, the “effect on cell viability” value (HEK293T) was “hardly affects” and the “ABL level after washout” value (ABL [2]; [4]) was “increased over time”. For the same compound, the “ABL level after washout” value (ABL [2]; [5]) was “almost disappeared”, the “BCR-ABL level after washout” value (BCR-ABL fusion protein; [4]) was “increased over time” and the “BCR-ABL fusion protein level after washout” value (BCR-ABL fusion protein; [5]) was “remained at a low level”. For the same compound, the “time at which ABL reached the maximum degradation” value (ABL [3]; 250 nM) was 32 h, the “ABL level, time-effect” value (ABL [3]; 250 nM, 4 hours of incubation) was “significantly reduced” and the “c-ABL level, time-effect” value (ABL [3]; 250 nM, after 10 hours) was “significantly degraded”. The “ABL protein degraded, dose-effect” value (ABL [3]; 500 nM, 24 hours of incubation) was “almost all”.
